# Source: patent US9612237B2, “Ritalinic acid immunoassay” (Randox Laboratories Limited, priority 2013, dated 2017)
# Where a name gives a salt, the structure may show the parent alone.
# System: antisera generated in response to immunogen of Example 11
# Experiment: Competitive chemiluminescent biochip immunoassay, antisera raised against immunogen of Example 11, conjugate of Example 12
# Format: binding, sheep
# Conditions: not given
row,Compound,Concentration exhibiting no cross-reactivity [µg/mL]
1,"CN1CCCC1c1cccnc1 (single isomer, unassigned; (-)) [(−)-nicotine]",22
2,Cl.NC1CCC(c2ccc(Cl)c(Cl)c2)c2ccccc21 (stereo not drawn) [N-desmethyl sertraline HCl],10
3,Oc1cccc(N2CCNCC2)c1 [1-(3-hydroxyphenyl)-piperazine],0.4
4,CN(C(=O)O[C@@H]1O[C@H](C(=O)O)[C@@H](O)[C@H](O)[C@H]1O)[C@H]1CC[C@@H](c2ccc(Cl)c(Cl)c2)c2ccccc21 [sertraline carbamoyl glocuronide],3
5,CC(=O)Nc1ccc(O)c(SC[C@H](NC(C)=O)C(=O)[O-])c1.[Na+] [3-(N-acetyl-L-cystein-s-yl) acetaminophen sodium salt],250
6,CNCCC=C1c2ccccc2CCc2ccccc21 [nortriptyline HCl],10
7,CC(=O)Nc1ccc(OS(=O)(=O)[O-])cc1.[K+] [4-acetaminophen sulphate potassium salt],250
8,CN1C(=O)CN=C(c2ccccc2)c2cc(Cl)ccc21 [diazepam],3
9,CC(=O)Nc1ccc(O)c(SC[C@H](N)C(=O)O)c1.O=C(O)C(F)(F)F [3-cysteinylacetaminophen trifluoroacetic acid salt],250
10,COc1ccc2cc([C@H](C)C(=O)O)ccc2c1 [naproxen],250

# Same assay, conditions: biochip; relative to methylphenidate = 100
row,Compound,% cross reactivity [%]
1,CCN(CC)CCN1C(=O)CN=C(c2ccccc2F)c2cc(Cl)ccc21 [flurazepam],<1
2,CN[C@@H](C)[C@@H](O)c1ccccc1.Cl [(+)-pseudoephedrine HCl],0.2
3,CCOC(=O)[C@@H](c1ccccc1)[C@H]1CCCCN1.Cl (racemic) [rac-erythro-ethylphenidate HCl],1.9
4,c1ccc(C2(N3CCCCC3)CCCCC2)cc1 [PCP],<0.1

# Same assay, conditions: value is the concentration at which no cross-reactivity was exhibited
row,Compound,Concentration exhibiting no cross-reactivity [µg/mL]
1,CC(C)Cc1ccc(CC(=O)O)cc1 [ibufenac],250
2,COc1ccc2c(c1)[C@]13CCCC[C@@H]1[C@H](C2)N(C)CC3 [dextromethorphan hydrobromide monohydrate],10
3,Nc1ccc(C(=O)O)c(O)c1 [4-aminosalicylic acid],250
4,O=C(O)c1cc(O)ccc1O [gentisic acid],250
5,CCC(C)C(C)(COC(N)=O)COC(N)=O (stereo not drawn) [mebutamate],0.35
6,O=C[C@H](O)[C@@H](O)[C@H](O)[C@H](O)C(=O)O [D-glucuronic acid],60
7,CNC(C)Cc1ccc2c(c1)OCO2 (stereo not drawn) [MDMA],5
8,CC(C)Cc1ccc(C(C)C(=O)O)cc1 (stereo not drawn) [S-(+)-ibuprofen],250
9,CC(=O)Oc1ccccc1C(=O)O [aspirin],250
10,CC(C(=O)O)c1cccc(C(=O)c2ccccc2)c1 (stereo not drawn) [ketoprofen],250
11,CN(C)CCC[C@]1(c2ccc(F)cc2)OCc2cc(C#N)ccc21.O=C(O)C(=O)O [(R)-citalopram oxalate],1.5
12,NCCc1ccccc1.O=S(=O)(O)O [phenethylamine sulfate],250
13,dextrorphan tartrate salt,0.25
14,O=C1CN=C(c2ccccc2)c2cc(Cl)ccc2N1 [nordiazepam],3
15,Br.CNCCC[C@@]1(c2ccc(F)cc2)OCc2cc(C#N)ccc21 [N-desmethyl escitalopram hydrobromide],10
16,CCCCCc1cc(O)c2c(c1)OC(C)(C)[C@@H]1CCC(C)=C[C@@H]21 [delta-9-THC],10
17,COc1cccc(C2(O)CCCCC2CN)c1.Cl (racemic) [rac N-bisdesmethyl tramadol HCl],0.18
18,CCc1nn(CCCN2CCN(c3cccc(Cl)c3)CC2)c(=O)n1CC [etoperidone HCl],0.4
19,"O=C(O)c1cccc(O)c1O [2,3-dihydroxy benzoic acid]",250
20,Cc1ccc(-c2nc3ccc(C)cn3c2CC(=O)N(C)C)cc1 [zolpidem tartrate],10
21,CC(=O)Nc1ccc(OC(=O)c2ccccc2OC(C)=O)cc1 [benorylate HCl],250
22,COC(=O)c1ccccc1O [methyl salicylate],250

row,Compound,Concentration exhibiting no cross-reactivity [µg/mL]
1,CN1C(=O)CC[C@H]1c1cccnc1 [(−)-cotinine],22
2,O=C(O)[C@H]1O[C@@H](OCC(Cl)(Cl)Cl)[C@H](O)[C@@H](O)[C@@H]1O [urochloralic acid],100
3,CCN(CC)C(=O)[C@@H]1C=C2c3cccc4[nH]cc(c34)C[C@H]2N(C)C1 [LSD],10
4,O=c1n(CCCN2CCN(c3cccc(Cl)c3)CC2)nc2ccccn12 [trazodone HCl],10
5,CCN(C(C)=O)c1cccc(-c2ccnc3c(C#N)cnn23)c1 [zaleplon],10
6,Cc1ccccc1-n1c(C)nc2ccccc2c1=O [methaqualone],10
7,CCOc1ccc(N)cc1 [p-phenetidine],106.35
8,CCOC(=O)C1(c2ccccc2)CCNCC1 [normeperidine],1
9,CNCCC(Oc1ccc(C(F)(F)F)cc1)c1ccccc1 (stereo not drawn) [fluoxetine HCl],10
10,CCCC(C)(COC(N)=O)COC(N)=O [meprobamate],10
11,CC(=O)Nc1ccc(O[C@@H]2O[C@H](C(=O)[O-])[C@@H](O)[C@H](O)[C@H]2O)cc1.[Na+] [4-acetamidophenyl β-D-glucuronide sodium salt],250
12,CC(=O)N=C1C=CC(=O)C=C1 [N-acetylbenzoquinomeimine],125
13,CCC(=O)C(CC(C)N(C)C)(c1ccccc1)c1ccccc1 (stereo not drawn) [methadone],10
14,O=C(O)c1cc(-c2ccc(F)cc2F)ccc1O [diflusinal],250
15,COc1ccc2c3c1O[C@H]1[C@@H](O)C=C[C@H]4[C@@H](C2)N(C)CC[C@@]341 [codeine],0.25
16,COc1ccc(C(CN(C)C)C2(O)CCCCC2)cc1 (stereo not drawn) [venlafaxine HCl],0.18
17,salicylic acid B-D glucuronide,125
18,"CCC(=O)OC(Cc1ccccc1)(c1ccccc1)C(C)CNC.O=C(O)/C=C\C(=O)O (single isomer, unassigned; (+)) [(+)-norpropoxyphene maleate]",10
19,CC(C)Cc1ccc([C@@H](C)C(=O)O)cc1 [(R)-(−)-ibuprofen],250
20,O=C(O)c1ccccc1 [benzoic acid],250
21,CC(C(=O)O)c1ccc(CC(C)(C)O)cc1 (racemic) [rac-2-hydroxy ibuprofen],125
22,CCOc1ccc(NC(C)=O)cc1 [phenacetin],250

row,Compound,Concentration exhibiting no cross-reactivity [µg/mL]
1,CN1CC[C@]23CCCC[C@H]2[C@H]1Cc1ccc(O)cc13 [levorphanol],0.25
2,CN[C@@H](C)Cc1ccccc1 [MAMP],2.5
3,COc1ccc2c3c1O[C@H]1C(=O)CC[C@@]4(O)[C@@H](C2)N(C)CC[C@]314 [oxycodone],10
4,O=C1Nc2ccc(Cl)cc2C(c2ccccc2Cl)=NC1O (stereo not drawn) [lorazepam],3
5,"CNCC1CCCCC1(O)c1cccc(O)c1 (racemic) [rac N,O-didesmethyl tramadol]",0.18
6,COc1ccc2c(c1)[C@@]13CCCC[C@H]1[C@@H](C2)NCC3.Cl [3-methoxymorphinan HCl],0.25
7,CN1C(=O)CN=C(c2ccccc2F)c2cc(N)ccc21 [7-NH flunitrazepam],10
8,C[C@H](N)Cc1ccccc1 [D-amphetamine],10
9,CN[C@H]1CC[C@@H](c2ccc(Cl)c(Cl)c2)c2ccccc21 [sertaline],7.5
10,COc1cccc(C2(O)CCCCC2CN(C)C)c1 (stereo not drawn) [tramadol HCl],10
11,CC(=O)Oc1ccc2c3c1O[C@H]1[C@@H](OC(C)=O)C=C[C@H]4[C@@H](C2)N(C)CC[C@@]341 [heroin],10
12,Oc1ccc(C(F)(F)F)cc1 [p-trifluoromethylphenol],2.5
13,CC(Cc1ccc(C(C)C(=O)O)cc1)C(=O)O (stereo not drawn) [ibuprofen carboxylic acid],250
14,c1ccc(CN2CCNCC2)cc1 [1-benzylpiperiazine],10
15,COc1ccc2c3c1O[C@H]1C(=O)CC[C@H]4[C@@H](C2)N(C)CC[C@]314 [hydrocodone],10
16,O=C(O)C(Cl)(Cl)Cl [trichloroacetic acid],100
17,CN1C(=O)C(O)N=C(c2ccccc2)c2cc(Cl)ccc21 (stereo not drawn) [temazepam],3
18,O=C(O)CNC(=O)c1cc(O)ccc1O [gentisuric acid],250
19,Oc1ccc2c(c1)[C@@]13CCCC[C@H]1[C@@H](C2)NCC3 [N-desmethyl dextorphan],0.25
20,COc1ccc(NC(C)=O)cc1 [methacetin],250
